Test results from patent US7166622B2, “Substituted phenylsulfonamide inhibitors of beta amyloid production” (Wyeth, priority 2002, dated 2007).
Read-outs that look alike come from different tables or passages of the source.

Columns and labels:
CHO-K1 cells = experiment: Toxicity in RRA (loss of luciferase signal); conditions: toxicity = loss of signal (<0.75 fold increase)
Description: The beta amyloid inhibitory activity of the compounds of the present invention was determined using the Repressor Release Assay (RRA).
“Fold Increase” refers to the amount of luciferase activity (measured in relative light units) over diluent control. “SEM” refers to the standard error of the mean for fold increase.

beta amyloid production = experiment: Repressor Release Assay (RRA); format: cell-based; conditions: for fold induction at 20 µg/mL: Conc 20 μg/ml; for fold induction at 20 µg/mL / fold induction at 10 µg/mL: read-out: APPI Fold Increase; for APPI Fold Increase / APPI % of Example #98 / fold induction at 10 µg/mL: Conc 10 μg/ml; for APPI % of Example #98: relative to Example 98
Method in brief: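 CHO-K1 cells transiently co-transfected with pRSVO-luc and an APP-lacI construct, replated, then treated in duplicate for 36-48 h at 37 °C, 5% CO2. Compounds diluted in 25 mM Hepes, with Hepes/1% DMSO as diluent control. Luciferase read-out in relative light units; toxicity scored 1 non-toxic, 0 toxic.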

[1] = luciferase activity over diluent control
[2] = Conc 20 μg/ml, 1=non-toxic, 0=toxic
[3] = luciferase activity (RLU) over diluent control

Row | Structure (SMILES) | (%)APPI Toxicity (CHO-K1 cells; Conc 20 μg/ml) | fold induction at 20 µg/mL (beta amyloid production; [1]) | (%)APPI Toxicity (CHO-K1 cells; Conc 10 μg/ml) | fold induction at 10 µg/mL (beta amyloid production; [1]) | also measured
1 | CC[C@H](C)[C@@H](CO)NS(=O)(=O)c1ccc(Br)c(Br)c1 [Example 22, 3,4-dibromo-N-[(1S,2S)-1-(hydroxymethyl)-2-methylbutyl]benzenesulfonamide] | 1 (1=non-toxic) | 1.7 | – | – | –
2 | CC[C@H](C)[C@H](NS(=O)(=O)c1ccc(Cl)cc1)C(O)CCC1OCCCO1 (stereo partly drawn) [Example 179, 4-chloro-N-{(1S)-4-(1,3-dioxan-2-yl)-2-hydroxy-1-[(1S)-1-methylpropyl]butyl} benzenesulfonamide] | – | – | 1 (1=non-toxic) | – | APPI Fold Increase (beta amyloid production; [1]): 1.63 fold; APPI % of Example #98 (beta amyloid production): 79.4%
3 | CCCCC(O)[C@@H](NS(=O)(=O)c1ccccc1F)[C@@H](C)CC (stereo partly drawn) [Example 205, 2-fluoro-N-{(1S)-2-hydroxy-1-[(1S)-1-methylpropyl]hexyl}benzenesulfonamide] | – | – | 1 (1=non-toxic) | 1.72 | –
4 | CC[C@H](C)[C@H](NS(=O)(=O)c1ccc(F)cc1)C(O)C(C)(C)C (stereo partly drawn) [Example 132, 4-fluoro-N-{(1S)-2-hydroxy-3,3-dimethyl-1-[(1S)-1-methylpropyl]butyl}benzenesulfonamide] | – | – | 1 (1=non-toxic) | 1.54 | –
5 | O=S(=O)(N[C@H](CO)Cc1ccccc1)c1ccc(Br)cc1 [Example 15, N-[(1S)-1-benzyl-2-hydroxyethyl]-4-bromobenzenesulfonamide] | 1 (1=non-toxic) | 1.5 | – | – | –
6 | C=CCCC(O)(CCC=C)[C@@H](NS(=O)(=O)c1ccc(Br)cc1)[C@@H](C)CC [Example 221, 4-bromo-N-{(1S)-2-(3-butenyl)-2-hydroxy-1-[(1S)-1-methylpropyl]-5-hexenyl}benzenesulfonamide] | – | – | 1 (1=non-toxic) | 5.73 | –
7 | CC[C@H](C)[C@@H](CO)NS(=O)(=O)c1cccc2ccccc12 [Example 12, N-[(1S,2S)-1-(hydroxymethyl)-2-methylbutyl]naphthalene-1-sulfonamide] | 1 (1=non-toxic) | 2.9 | – | – | –
8 | CC(C)[C@@](C)(CO)NS(=O)(=O)c1ccc(Cl)cc1 [Example 37, 4-chloro-N-[(1S)-1-(hydroxymethyl)-1,2-dimethylpropyl]benzenesulfonamide] | 1 (1=non-toxic) | 4.7 | – | – | –
9 | C/C=C(\C)C(O)[C@@H](NS(=O)(=O)c1ccc(Br)cc1)[C@@H](C)CC (stereo partly drawn) [Example 159, 4-bromo-N-{(1S,3E)-2-hydroxy-3-methyl-1-[(1S)-1-methylpropyl]-3-pentenyl}benzenesulfonamide] | – | – | 1 (1=non-toxic) | 2.11 | –
10 | CC[C@H](C)[C@H](NS(=O)(=O)c1ccccc1F)C(O)CCC1OCCCO1 (stereo partly drawn) [Example 210, N-{(1S)-4-(1,3-dioxan-2-yl)-2-hydroxy-1-[(1S)-1-methylpropyl]butyl}-2-fluorobenzenesulfonamide] | – | – | 1 (1=non-toxic) | 1.68 | –
11 | CC#CC(O)[C@@H](NS(=O)(=O)c1ccc(Cl)cc1)[C@@H](C)CC (stereo partly drawn) [Example 181, 4-chloro-N-{(1S)-2-hydroxy-1-[(1S)-1-methylpropyl]-3-pentynyl}benzenesulfonamide] | – | – | 1 (1=non-toxic) | 1.76 | –
12 | O=S(=O)(N[C@H](CO)C1CCCCC1)c1ccc(Br)cc1 [Example 16, 4-Bromo-N-[(1S)-1-cyclohexyl-2-hydroxyethyl]benzenesulfonamide] | 1 (1=non-toxic) | 2.7 | – | – | –
13 | C[C@@H](NS(=O)(=O)c1ccc(Cl)cc1)[C@@H](O)c1ccccc1 [Example 93, 4-chloro-N-[(1R,2S)-2-hydroxy-1-methyl-2-phenylethyl]benzenesulfonamide] | 1 (1=non-toxic) | 1.5 | – | – | –
14 | CC[C@H](C)[C@@H](CO)NS(=O)(=O)c1c(C)cccc1Cl [Example 7, 2-chloro-N-[(1S,2S)-1-(hydroxymethyl)-2-methylbutyl]-6-methylbenzenesulfonamide] | 1 (1=non-toxic) | 1.6 | – | – | –
15 | CC(C)C[C@@H](c1ccco1)[C@@H](CO)NS(=O)(=O)c1ccc(Cl)cc1 [Example 67, 4-chloro -N-[(1S,2R)-2-(2-furyl)-1-(hydroxymethyl)-4-methylpentyl]benzenesulfonamide] | – | – | – | – | (%)APPI Toxicity (CHO-K1 cells; [2]): 1 (1=non-toxic); fold induction at 20 µg/mL (beta amyloid production; [3]): 3.9
16 | CC[C@H](C)[C@H](NS(=O)(=O)c1ccccc1F)C(O)(c1ccc(OC)cc1)c1ccc(OC)cc1 [Example 269, 2-fluoro-N-((1S,2S)-1-{hydroxy[bis(4-methoxyphenyl)]methyl}-2-methylbutyl)benzenesulfonamide] | – | – | 1 (1=non-toxic) | 1.58 | –

Row | Structure (SMILES) | (%)APPI Toxicity (CHO-K1 cells; Conc 20 μg/ml) | fold induction at 20 µg/mL (beta amyloid production; [1]) | (%)APPI Toxicity (CHO-K1 cells; Conc 10 μg/ml) | fold induction at 10 µg/mL (beta amyloid production; [1]) | also measured
17 | CC[C@H](C)[C@H](NS(=O)(=O)c1ccc(Br)cc1)C(O)c1ccc(N(C)C)cc1 (stereo partly drawn) [Example 164, 4-bromo-N-{(1S,2S)-1-[[4-(dimethylamino)phenyl](hydroxy)methyl]-2-methylbutyl} benzenesulfonamide] | – | – | 1 (1=non-toxic) | – | APPI Fold Increase (beta amyloid production; [1]): 3.53 fold; APPI % of Example #98 (beta amyloid production): 149.31%
18 | C=C(C)C(O)(C(=C)C)[C@@H](NS(=O)(=O)c1ccc(Br)cc1)[C@@H](C)CC [Example 219, 4-bromo-N-{(1S)-2-hydroxy-2-isopropenyl-3-methyl-1-[(1S)-1-methylpropyl]-3-butenyl}benzenesulfonamide] | 1 (1=non-toxic) | 2.8 | 1 (1=non-toxic) | 1.8 | –
19 | CCCCCC[C@@H](CCC)[C@@H](CO)NS(=O)(=O)c1ccc(Br)cc1 [Example 79, 4-bromo-N-[(1S,2R)-1-(hydroxymethyl)-2-propyloctyl]benzenesulfonamide] | – | – | – | – | (%)APPI Toxicity (CHO-K1 cells; [2]): 1 (1=non-toxic); fold induction at 20 µg/mL (beta amyloid production; [3]): 1.5
20 | CCCCC(O)(CCCC)[C@@H](NS(=O)(=O)c1ccc(Br)cc1)[C@@H](C)CC [Example 213, 4-bromo-N-{(1S)-2-butyl-2-hydroxy-1-[(1S)-1-methylpropyl]hexyl}benzenesulfonamide] | – | – | 1 (1=non-toxic) | 3.03 | –
21 | C=CC(O)[C@@H](NS(=O)(=O)c1ccc(Cl)cc1)[C@@H](C)CC (stereo partly drawn) [Example 174, 4-chloro-N-{(1S)-2-hydroxy-1-[(1S)-1-methylpropyl]-3-butenyl}benzenesulfonamide] | – | – | 1 (1=non-toxic) | 2.1 | –
22 | CCCCC(O)(CCCC)[C@@H](NS(=O)(=O)c1ccc(F)cc1)[C@@H](C)CC [Example 238, N-{(1S)-2-butyl-2-hydroxy-1-[(1S)-1-methylpropyl]hexyl}-4-fluorobenzenesulfonamide] | – | – | 1 (1=non-toxic) | 4.5 | –
23 | CC(C)[C@H](C)[C@@H](CO)NS(=O)(=O)c1ccc(Cl)cc1 [Example 69, 4-chloro-N-[(1S,2S)-1-(hydroxymethyl)-2,3-dimethylbutyl]benzenesulfonamide] | – | – | – | – | (%)APPI Toxicity (CHO-K1 cells; [2]): 1 (1=non-toxic); fold induction at 20 µg/mL (beta amyloid production; [3]): 3.1
24 | CCCCC(O)[C@@H](NS(=O)(=O)c1ccc(F)cc1)[C@@H](C)CC (stereo partly drawn) [Example 130, 4-fluoro-N-{(1S)-2-hydroxy-1-[(1S)-1-methylpropyl]hexyl}benzenesulfonamide] | – | – | 1 (1=non-toxic) | 2.4 | –
25 | CCC[C@H](CC(C)C)[C@@H](CO)NS(=O)(=O)c1ccc(Br)cc1 [Example 78, 4-bromo-N-[(1S,2R)-1-(hydroxymethyl)-4-methyl-2-propylpentyl]benzenesulfonamide] | – | – | – | – | (%)APPI Toxicity (CHO-K1 cells; [2]): 1 (1=non-toxic); fold induction at 20 µg/mL (beta amyloid production; [3]): 4.4
26 | CCCCC(O)(CCCC)[C@@H](NS(=O)(=O)c1cccc(Cl)c1)[C@@H](C)CC [Example 251, N-{(1S)-2-butyl-2-hydroxy-1-[(1S)-1-methylpropyl]hexyl}-3-chlorobenzenesulfonamide] | – | – | 1 (1=non-toxic) | 3.4 | –
27 | CC[C@H](C)[C@@H](CO)NS(=O)(=O)c1cc(Cl)ccc1OC [Example 6, 5-chloro-N-[(1S,2S)-1-(hydroxymethyl)-2-methylbutyl]-2-methoxybenzenesulfonamide] | 1 (1=non-toxic) | 1.7 | – | – | –
28 | O=S(=O)(N[C@@H](CO)c1ccc(O)cc1)c1ccc(Br)cc1 [Example 17, 4-bromo-N-[(1R)-2-hydroxy-1-(4-hydroxyphenyl)ethyl]benzenesulfonamide] | 1 (1=non-toxic) | 2.2 | – | – | –
29 | O=S(=O)(NC1(CO)CCCC1)c1ccccc1F [Example 114, 2-fluoro-N-[1-(hydroxymethyl)cyclopentyl]benzenesulfonamide] | 1 (1=non-toxic) | 1.5 | – | – | –
30 | O=S(=O)(N[C@H](CO)Cc1cc2ccccc2[nH]1)c1ccc(Br)cc1 [Example 19, 4-bromo-N-[(1S)-2-hydroxy-1-(1H-indol-2-ylmethyl)ethyl]benzenesulfonamide] | 1 (1=non-toxic) | 1.6 | – | – | –
31 | C=CCC(O)(CC=C)[C@@H](NS(=O)(=O)c1ccc(F)cc1)[C@@H](C)CC [Example 241, N-{(1S)-2-allyl-2-hydroxy-1-[(1S)-1-methylpropyl]-4-pentenyl}-4-fluoro benzenesulfonamide] | – | – | 1 (1=non-toxic) | – | APPI Fold Increase (beta amyloid production; [1]): 1.58 fold; APPI % of Example #98 (beta amyloid production): 72.82%
32 | CC[C@H](C)[C@H](NS(=O)(=O)c1ccccc1F)C(O)(CC)CC [Example 265, N-{(1S)-2-ethyl-2-hydroxy-1-[(1S)-1-methylpropyl]butyl}-2-fluorobenzenesulfonamide] | – | – | 1 (1=non-toxic) | 1.78 | –
